Reference: the supplement of paper PMC13380429

Tests used:
Conditions in all cases: 72 h
Calu-3 [1] = test: drug sensitivity score (DSS) for viability; higher = more toxic; extreme values may be limits of the assay
HepG2 [2] = test: as above
U2OS [3] = test: as above
Vero E6 [4] = test: as above
Caco-2 [5] = test: as above
Calu-3 [6] = test: relative viability EC50 (midpoint between 100% and the lowest measured viability); higher = less toxic
HepG2 [7] = test: as above
U2OS [8] = test: as above
Vero E6 [9] = test: as above
Caco-2 [10] = test: as above
Calu-3 [11] = test: cell viability relative to DMSO; higher = less toxic
HepG2 [12] = test: as above
U2OS [13] = test: as above
Vero E6 [14] = test: as above
Caco-2 [15] = test: as above

SMILES | drug sensitivity score (Calu-3 [1]) | drug sensitivity score (HepG2 [2]) | drug sensitivity score (U2OS [3]) | drug sensitivity score (Vero E6 [4]) | drug sensitivity score (Caco-2 [5]) | relative viability EC50 (Calu-3 [6]) [µM] | relative viability EC50 (HepG2 [7]) [µM] | relative viability EC50 (U2OS [8]) [µM] | relative viability EC50 (Vero E6 [9]) [µM] | relative viability EC50 (Caco-2 [10]) [µM] | cell viability (Calu-3 [11]; 1 nM) [%] | cell viability (Calu-3 [11]; 10 nM) [%] | cell viability (Calu-3 [11]; 100 nM) [%] | cell viability (Calu-3 [11]; 1000 nM) [%] | cell viability (Calu-3 [11]; 10000 nM) [%] | cell viability (HepG2 [12]; 1 nM) [%] | cell viability (HepG2 [12]; 10 nM) [%] | cell viability (HepG2 [12]; 100 nM) [%] | cell viability (HepG2 [12]; 1000 nM) [%] | cell viability (HepG2 [12]; 10000 nM) [%] | cell viability (U2OS [13]; 1 nM) [%] | cell viability (U2OS [13]; 10 nM) [%] | cell viability (U2OS [13]; 100 nM) [%] | cell viability (U2OS [13]; 1000 nM) [%] | cell viability (U2OS [13]; 10000 nM) [%] | cell viability (Vero E6 [14]; 1 nM) [%] | cell viability (Vero E6 [14]; 10 nM) [%] | cell viability (Vero E6 [14]; 100 nM) [%] | cell viability (Vero E6 [14]; 1000 nM) [%] | cell viability (Vero E6 [14]; 10000 nM) [%] | cell viability (Caco-2 [15]; 1 nM) [%] | cell viability (Caco-2 [15]; 10 nM) [%] | cell viability (Caco-2 [15]; 100 nM) [%] | cell viability (Caco-2 [15]; 1000 nM) [%] | cell viability (Caco-2 [15]; 10000 nM) [%]
CC(C)(CCCCCC(O)CCCCCC(C)(C)C(=O)O)C(=O)O [bempedoic-acid] | 0 | 0 | 0 | 0 | 0 | > 10 | > 10 | > 10 | > 10 | > 10 | 90.2 | 92.3 | 87.2 | 92.1 | 92.6 | 102 | 98.2 | 107 | 98.2 | 102 | 97.6 | 97.2 | 97.7 | 100 | 100 | 106 | 104 | 98 | 100 | 98 | 98.5 | 95.6 | 96.8 | 96.1 | 95
CC(C)c1cc(-c2ccc(F)c3ccccc23)nc(N)n1 | 0 | 0 | 0 | 0 | 0 | > 10 | > 10 | > 10 | > 10 | > 10 | 80.3 | 103 | 99.7 | 107 | 108 | 103 | 119 | 99.2 | 99.3 | 113 | 93.1 | 96.6 | 98.7 | 97.9 | 100 | 94.1 | 98.6 | 98.8 | 102 | 107 | 90.7 | 101 | 102 | 92.7 | 101
Cc1cnc(C(=O)N[C@H]2CCCCC/C=C\[C@@H]3C[C@@]3(C(=O)NS(=O)(=O)C3CC3)NC(=O)[C@@H]3C[C@@H](Oc4nc5ccccc5c5ccccc45)CN3C2=O)cn1 [paritaprevir] | 0 | 0 | 0 | 0 | 0 | > 10 | > 10 | > 10 | > 10 | > 10 | 110 | 108 | 107 | 99.9 | 102 | 108 | 96.8 | 105 | 94.7 | 109 | 105 | 105 | 107 | 94.8 | 96.4 | 99.8 | 93.9 | 97 | 94 | 98.8 | 110 | 94.8 | 103 | 95 | 99.1
CN1C(=O)N(c2cc(Cl)cc(Cl)c2)C(=O)[C@@]1(C)Cc1ccc(Br)cc1 [BIRT-377] | 0 | 0 | 0 | 0 | 0.3 | > 10 | > 10 | > 10 | > 10 | > 10 | 98.4 | 92.8 | 91.1 | 105 | 92.7 | 105 | 101 | 104 | 86.6 | 103 | 98.1 | 100 | 95.2 | 99.2 | 88.8 | 98.7 | 96.8 | 104 | 95.3 | 101 | 101 | 98 | 97.9 | 102 | 83.4
O=C(CCCN1CCC(n2c(=O)[nH]c3ccccc32)CC1)c1ccc(F)cc1 [benperidol] | 0 | 0 | 0 | 0 | 0 | > 10 | > 10 | > 10 | > 10 | > 10 | 101 | 88.1 | 82.4 | 94.4 | 99.1 | 103 | 107 | 107 | 107 | 97.5 | 98.2 | 108 | 98.1 | 106 | 96.1 | 105 | 96.2 | 98 | 100 | 95.9 | 102 | 99.2 | 98.1 | 102 | 103
CC(NC(=O)c1ccccc1/N=C/c1c(O)ccc2ccccc12)c1ccccc1 (stereo not given) [sirtinol] | 0 | 0 | 0 | 0 | 0 | > 10 | > 10 | > 10 | > 10 | > 10 | 96.5 | 97.6 | 104 | 112 | 104 | 101 | 106 | 90.7 | 96.9 | 100 | 96.8 | 102 | 96.1 | 101 | 103 | 97.1 | 91.2 | 93 | 92.4 | 101 | 93.6 | 97.8 | 101 | 105 | 110
O=S1(=O)OC(c2ccc(O)cc2)(c2ccc(O)cc2)c2ccccc21 [phenolsulfonphthalein] | 0 | 0 | 0 | 0 | 0.1 | > 10 | > 10 | > 10 | > 10 | > 10 | 108 | 104 | 83.5 | 110 | 93.2 | 99.3 | 94.5 | 99.3 | 99.6 | 93.5 | 99.5 | 104 | 98 | 103 | 96.4 | 105 | 102 | 100 | 93.8 | 100 | 102 | 108 | 96.1 | 93.7 | 87.9
COc1cc(Cc2cnc(N)nc2N)c(C(C)C)cc1OC [Ro-3] | 0 | 0 | 0 | 0 | 0 | > 10 | > 10 | > 10 | > 10 | > 10 | 98.1 | 87.8 | 98 | 101 | 103 | 99.2 | 92.3 | 93.5 | 101 | 103 | 97.8 | 99.7 | 95 | 102 | 102 | 90.6 | 95.7 | 96.5 | 94.9 | 103 | 94.9 | 90.5 | 97.3 | 101 | 102
COc1cccc2c1C(=O)c1c(O)c3c(c(O)c1C2=O)C[C@@](O)(C(=O)CO)C[C@@H]3O[C@H]1C[C@H](N)[C@H](O[C@@H]2CCCCO2)[C@H](C)O1 [pirarubicin] | 9.6 | 13.5 | 8 | 6.3 | 7.9 | 0.622 | 0.619 | 1.95 | 1.12 | 1.25 | 103 | 92.7 | 86.7 | 59.1 | 27.4 | 104 | 101 | 87.4 | 38.3 | 0.8 | 98.9 | 99.5 | 99.4 | 84.6 | 1.1 | 102 | 98.1 | 96.7 | 73.5 | 40.6 | 96.9 | 92.4 | 89.7 | 68.4 | 20.7
CC[N+](C)(CC)CC(=O)Nc1c(C)cccc1C [N-methyllidocaine-iodide] | 0 | 0 | 0 | 0 | 0 | > 10 | > 10 | > 10 | > 10 | > 10 | 98.2 | 102 | 102 | 96.7 | 102 | 106 | 95.4 | 93.7 | 111 | 107 | 95.1 | 101 | 96.7 | 97.4 | 100 | 98.7 | 96.2 | 99.2 | 102 | 101 | 88 | 101 | 103 | 94.8 | 102
CN1CCN(c2ccc(/C=C(\C#N)c3ccccc3Br)cc2)CC1 [DG-172] | 0 | 0.3 | 0 | 0 | 0.2 | > 10 | > 10 | > 10 | > 10 | > 10 | 114 | 102 | 104 | 100 | 90.6 | 101 | 99.9 | 104 | 105 | 82.1 | 105 | 101 | 106 | 100 | 94.8 | 106 | 108 | 104 | 105 | 91.3 | 102 | 99.5 | 100 | 95.5 | 88.5
CC(C)=CCC/C(C)=C/CC/C(C)=C/CSc1ccccc1C(=O)O [salirasib] | 0 | 0 | 0 | 0 | 0 | > 10 | > 10 | > 10 | > 10 | > 10 | 104 | 99.6 | 101 | 103 | 99.2 | 98.5 | 98.7 | 93.9 | 98.5 | 94.8 | 102 | 97.3 | 98 | 96.6 | 97.9 | 95.8 | 103 | 97.2 | 97.4 | 97.3 | 93.4 | 97.8 | 98.9 | 96.3 | 92.6
C[C@H](Cn1cnc2c(N)ncnc21)OCP(=O)(O)O [tenofovir] | 0 | 0 | 0 | 0 | 0 | > 10 | > 10 | > 10 | > 10 | > 10 | 98.4 | 101 | 94.7 | 93.3 | 93.8 | 93.9 | 94.6 | 105 | 107 | 115 | 101 | 98.6 | 102 | 99.8 | 103 | 94.4 | 94.4 | 97.2 | 94.5 | 107 | 97.8 | 89.2 | 96.9 | 99.6 | 107
